From patent publication US5833946A, “Dissemination of fungal infections: animal model and method of prophylaxis” (priority 1995, dated 1998)
Like-named read-outs stand apart in the source and are kept apart here. Non-standard residues stand in square brackets, D forms with d. Residues, ends and D or L forms follow the SMILES beside them. *: point of attachment. Sta = CC(C)C[C@H](N)[C@@H](O)CC(=O)O; Isovaleryl = CC(C)CC(=O)*

Tests used:
[1] = system: C. albicans; assay: Control experiments with ciprofloxacin alone (data not shown); conditions: ciprofloxacin by itself
From the text: (§1) To examine the role of the protease under conditions in which the challenge dose of C. albicans first has to cross the airway epithelium before it can disseminate, the following procedure was developed. To both mimic the immunosuppressed patient state and increase susceptibility of the test animals to C. albicans, mice were rendered neutropenic by treatment with cyclophosphamide, and received concurrent ciprofloxacin treatment to block opportunistic infection by endogenous gram negative flora.

[2] = system: C. albicans ATCC 32354; assay: Mortality after intravenous challenge; assay type: in vivo, mice
Procedure: Female Swiss Webster mice (n=10 per treatment group) were challenged by tail vein injection with 10^6 c.f.u. Candida albicans ATCC 32354 in 0.2 ml saline and mortality was monitored over the following 14 days. Three hr prior to challenge with candida, and on days 1 to 5 post challenge with candida, mice also received one of the following compounds (i.p. in saline): saline alone; 0.6 mgKg^-1 pepstatin A, or 1 mgKg^-1 amphotericin B. Challenge inoculum containing C. albicans was prepared in the same manner as used for airway challenge experiments except that it was adjusted to a final A660nm of 2.0.

[3] = system: C. albicans; conditions: administered prior to i.v. challenge with C. albicans; cited from earlier work
[4] = system: peak III secretory protease of C. albicans ATCC 32354; assay: Dns-ISEVNLDAEFR-amide cleavage by mono-Q peak III protease (HPLC, fluorimetric); assay type: biochemical; conditions: peak III enzyme, read-out: I.C.50 Pepstatin
Procedure: (§2) The proteases secreted by C. albicans ATCC 32354 also hydrolyzed the fluorescent peptide Dns-Ile-Ser-Glu-Val-Asn-Leu-Asp-Ala-Glu-Phe-Arg-amide (SEQ ID NO: 4), abbreviated Dns-ISEVNLDAEFR-amide. Aliquots of the protease-containing fractions recovered from mono-Q chromatography described in Example 1 (2 to 10 μl) were incubated with 30 μM final concentration of the fluorescent substrate Dns-ISEVNLDAEFR-amide at 37° C. in 60 μl 50 mM sodium citrate buffer of pH 4.4 for 15 minutes, after which reactions were terminated by addition of 50 μM pepstatin A in 33% v/v methanol to 10 μM final concentration, and set aside for HPLC analysis. […] Unconverted Dns-ISEVNLDAEFR-amide (RT=5.55 min) and fluorescent products eluting at 4.2 min (Dns-Ile-Ser-Glu-Val-Asn-Leu (SEQ ID NO: 5), and 3.0 min (unidentified), were resolved and detected fluorimetrically.
(§3) The secretory aspartic proteases produced by other pathogenic C. albicans strains and Candida sp. are inhibitable by pepstatin A and are therefore of the aspartyl class. To determine if the peak I, II, or III protease activities secreted by ATCC 32354 were also of the aspartyl class, their susceptibility to inhibition by pepstatin A was determined. […]

[5] = system: C. albicans ATCC 32354; assay: Formation of hyphae in culture (Gram stain, microscopy); assay type: cell-based; conditions: YCB/BSA, 48 hours, 2 μM and above
Procedure: Aliquots of cultures were removed after 48 hours, heat fixed on slides, and Gram stained (VWR Scientific, Inc., Boston, Mass.).

[6] = system: C. albicans ATCC 32354; assay: Histopathology of lung sections after airway challenge; assay type: in vivo, mice; conditions: 0.06 and 0.6 mg/Kg^-1
Procedure: For histopathology, mice from above described groups (two mice per group) were sacrificed on days 2 and 4 by administration of a lethal dose of sodium pentobarbitol. The lungs, liver, kidneys, and spleen were removed intact, embedded in paraffin, sectioned (5 μm), and stained with ammoniacal silver to visualize the Candida. Slides were stained by immersing in 4% periodic acid for 5 minutes, rinsing in distilled water five times, then immersing in a solution of ammoniacal silver (0.1% silver nitrate, 0.02% lithium hydroxide monohydrate) that had been heated by microwave (420 W for 1 min). Slides were microwaved in this solution for one minute then allowed to remain in the hot solution for one more minute before rinsing four times in distilled water and toning in 0.2% gold chloride for thirty seconds. Slides were then rinsed twice in distilled water, placed in 2% sodium thiosulfate for thirty seconds, then rinsed three times and dehydrated through graded alcohols. Finally, slides were cleared in 3-4 changes of xylene and mounted with Permount.

[7] = system: C. albicans ATCC 32354; assay: Growth of C. albicans in culture (A660nm); assay type: cell-based
Procedure: To study the effects of pepstatin A on growth of C. albicans, 0.1 ml of an overnight C. albicans culture was used to inoculate 10 ml cultures of either 1) YCB/BSA, or 2) a YD medium (0.2% yeast extract, 2% glucose) that contained 40 mM ammonium chloride. Pepstatin A was included in the cultures at final concentrations ranging between 0 and 10 μM (administered from a 50 μM aqueous stock). Growth of cultures at 30° C. was monitored by following A660nm. The growth of ATCC 32354 in YCB/BSA was inhibited about 90% by 2 μM pepstatin A (table II). This effect of pepstatin was fungistatic as resuspension of arrested cells in fermentation medium devoid of pepstatin A restored cell growth. […] Since ammonium chloride both removes dependence on, and suppresses the production of the secretory acid proteases, the mechanism of pepstatin inhibition action is likely to involve protease inhibition.

[8] = system: C. albicans ATCC 32354; assay: Organ burdens (c.f.u.) after intranasal challenge in immunosuppressed mice; assay type: in vivo; parameters: C. albicans, kidney / C. albicans, lungs: scale not given here
Procedure: (§4) Challenge inoculum was prepared by streaking Candida albicans (ATCC 32354) onto Sabouraud dextrose agar from a frozen glycerol stock and incubating overnight at 37° C. Five hours before challenge, the culture was re-streaked onto four Sabouraud dextrose agar slants and incubated (4 h. 37° C.). The culture was then washed from the agar slants with sterile saline, resuspended in fresh saline to achieve an A660nm of 0.2, and kept on ice until used. Fifty μl of a 10^-4 dilution of this challenge stock was plated to determine retrospectively the exact challenge dose in c.f.u. Female Swiss Webster mice (Charles River Breeding Laboratories, Inc., Wilmington, Mass., approx. 23 g, ten mice per group) received 125 mgKg^-1 cyclophosphamide i.p. in 0.2 ml of saline on days -5 and -3, 0, 2 and 4 of the study. On day 0, mice were anesthetized with 80 mgKg^-1 sodium pentobarbital i.p. and challenged intranasally with either 2.5×10^5 c.f.u. in 50 μl of saline or 50 μl of saline only (toxicity controls). On each of days 1 to 4 mice also received 50 mgKg^-1 Ciprofloxacin (i.p. in WFI/5% (w/v) glucose) to prevent bacterial infection in the immunocompromised mice. On days 0 to 4, groups of mice (n=10) received one of the following daily treatments (0.1 ml i.p.): saline, amphotericin B (0.1 to 1.0 mgKg^-1); and pepstatin A (0.06 to 6.0 mgKg^-1). Pepstatin A was dissolved in DMSO at 13.8 mgml^-1 and diluted 1:10 in saline for the 6 mgKg^-1 dose. Lower doses were diluted in normal saline serially from the 6 mgKg^-1 dose. Stock amphotericin B (5 mg/ml in WFI) was diluted in WFI containing 5% glucose. Treatment with drug on day zero was performed three hours prior to airway challenge with C. albicans. Survival was monitored for fifteen days following challenge. Toxicity controls were weighed daily over the duration of treatment. Animals from parallel groups (n=10) of mice were sacrificed at various stages and used to determine organ burdens and histopathology. Organ burdens were determined in parallel in 3 mice from parallel groups that were sacrificed on days 2, 4, and 17. Mice were anesthetized with sodium pentobarbital (80 mgKg^-1), bled by cardiac puncture, and then given a lethal dose of sodium pentobarbital. The kidneys, spleen, liver, and lungs were removed, weighed, and homogenized in 10 ml sterile PBS. Each organ homogenate (including heart blood) was serially diluted, plated on Sabauroud dextrose agar and incubated overnight at 37° C. Resulting colonies were counted to derive c.f.u./gram wet weight of organ.

[9] = system: peak I secretory protease of C. albicans ATCC 32354; assay: Dns-ISEVNLDAEFR-amide cleavage by mono-Q peak I protease (HPLC, fluorimetric); assay type: biochemical; conditions: peak I enzyme
Procedure: as §2, §3

[10] = system: C. albicans ATCC 32354; assay: Survival after lethal airway (intranasal) challenge in immunosuppressed mice; assay type: in vivo; conditions: for ED50: Candida albicans, ATCC32354, ip, i.p. daily days 0-4, neutropenic mice, intranasal challenge, read-out: EC50 (survival, airway challenge)
From the text: as §1, §4

[11] = system: peak II secretory protease of C. albicans ATCC 32354; assay: Dns-ISEVNLDAEFR-amide cleavage by mono-Q peak II protease (HPLC, fluorimetric); assay type: biochemical
Procedure: as §2, §3

[12] = 0.6 mg Kg^-1, 4 days post challenge

## O=C(O)c1cn(C2CC2)c2cc(N3CCNCC3)c(F)cc2c1=O [ciprofloxacin]
[1]
  effect on C. albicans in vitro or in vivo: no effect

## CC(C)CC(=O)N[C@H](C(=O)N[C@H](C(=O)N[C@@H](CC(C)C)[C@@H](O)CC(=O)N[C@@H](C)C(=O)N[C@@H](CC(C)C)[C@@H](O)CC(=O)O)C(C)C)C(C)C [pepstatin A] (Isovaleryl-VV[Sta]A[Sta]-OH)
[2]; 0.6 mgKg^-1 i.p.
  survival time post i.v. challenge: did not survive past day two
[2]; 0.6 mgKg^-1 i.p., 3 hr prior and days 1 to 5
  protective effect, classical i.v. challenge protocol: no protective effect
[3]
  reduced mortality in a statistically significant fashion (neither/nor = did not): neither
[4]; product eluting at 3.0 min
  IC50: 29 nM
[4]; product eluting at 4.2 min
  IC50: 36 nM
[5]
  formation of hyphae in cultures: inhibited the formation of hyphae
[6]
  growth of C. albicans and hyphae formation in the lungs (histopathology): inhibited both the growth of C. albicans and hyphae formation
[7]; Candida albicans, ATCC32354, YCB/BSA, 2 μM
  inhibition at 2 µM: ~90%
[7]; YCB/BSA
  nature of growth effect (resuspension without inhibitor restored growth): fungistatic
[7]; YCB/BSA, 145 hours in culture, 2.0 μM (control 1.97)
  A660 nm: 0.18
[7]; YCB/BSA, 145 hours in culture, 10.0 μM (control 1.97)
  A660 nm: 0.17
[7]; YD + 40 mM ammonium chloride, up to 10 μM
  inhibitory effect on growth in YD containing ammonium chloride: no significant inhibitory effects
[7]; YD + NH4Cl, 145 hours in culture, 2.0 μM (control 2.97)
  A660 nm: 2.99
[7]; YD + NH4Cl, 145 hours in culture, 10.0 μM (control 2.97)
  A660 nm: 3.20
[8]; 0.06 mg Kg^-1, 4 days post challenge (0 dose 39 ± 18.4)
  C. albicans, kidney: 0.67 ± 0.15 c. f. u. g^-1 homogenized tiss
[8]; 0.06 mg Kg^-1, 4 days post challenge (0 dose 4,540 ± 2,160)
  C. albicans, lungs: 0.58 ± 0.39 c. f. u. g^-1 homogenized tiss
[8]; [12]
  C. albicans, kidney: 0.49 ± 0.22 c. f. u. g^-1 homogenized tiss
  C. albicans, lungs: 0.13 ± 0.19 c. f. u. g^-1 homogenized tiss
[8]; all doses
  c.f.u. recovered from the kidneys: a small number of c.f.u.'s were recovered
[8]; intranasal challenge
  c.f.u. remaining in the lung tissue: dramatically reduced
  dissemination to the spleen and liver: completely blocked dissemination
[9]; product eluting at 3.0 min, 15 min pre-incubation, 1 hr reaction, pH 4.4, read-out: I.C.50 Pepstatin
  IC50: 9 nM
[9]; product eluting at 4.2 min, N. I. = no inhibition
  I.C.50 Pepstatin: N. I.
[10]; 0.6 mgKg^-1 i.p. daily days 0-4, airway challenge
  survival: 100%
[10]
  ED50: ~0.06 mg/kg
[10]; airway challenge, dose-dependent, 0.06 to 0.6 mgKg^-1
  protective effect upon pretreating mice: strong protective effect
[11]; peak II enzyme, product eluting at 4.2 min, read-out: I.C.50 Pepstatin
  IC50: 28 nM

## C[C@@H]1[C@H](O)[C@@H](C)/C=C/C=C/C=C/C=C/C=C/C=C/C=C/[C@H](O[C@@H]2O[C@H](C)[C@@H](O)[C@H](N)[C@@H]2O)C[C@@H]2O[C@](O)(C[C@@H](O)C[C@@H](O)[C@H](O)CC[C@@H](O)C[C@@H](O)CC(=O)O[C@H]1C)C[C@H](O)[C@H]2C(=O)O [amphotericin B]
[2]; 1 mgKg^-1 i.p., 3 hr prior and days 1 to 5
  survival rate after 14 days, i.v. challenge: 70%
[10]; 1 mgKg^-1 i.p. daily days 0-4, first dose 3 h before challenge
  protection against lethal airway challenge: complete protection
[10]
  ED50: ~0.1 mg/kg

## 1{92S,4S,5S)-5-[(2S)-3-(tert-Butylsulphonyl)-2-(1-naphthylmethyl)propanoyl]-(2R)N-(tert-butoxycarbonyl)-2-amino-2-[2-(1,3-dithiolan-2-yl)]ethanoyl]amino-6-cyclohexyl-4-hydroxy-2-(1-methyl)ethyl-hexanoyl}-s-isoleucinyl-2-yridylamide [compound X]
[7]; YCB/BSA
  effect on growth of C. albicans in YCB/BSA: blocked growth
[7]; YCB/BSA, 168 hours in culture, 10 μM (no compound 3.13)
  A660 nm: 0.26
[10]; 0.1 mgKg^-1
  protection against lethal airway challenge: Complete protection
[11]; peak II protease, read-out: I.C.50, in vitro activity of the peak II protease
  IC50: 110 nM
